From ChEMBL document CHEMBL1121411, “Convenient synthesis of 10-deazaaminopterin via a pteridine ylide” (J Med Chem, 1980)

Test system: HEp-2
Assay: Tested for cloning suppression test against H.Ep.-2 cells
Type: functional
Conditions: Homo sapiens, read-out: ED50 (the source's name)

Row | Compound | EC50 [nM]
1 | CN(Cc1cnc2nc(N)nc(N)c2n1)c1ccc(C(=O)N[C@@H](CCC(=O)O)C(=O)O)cc1 [METHOTREXATE] | 2.4
2 | Nc1cc(N)c2cc(CCc3ccc(C(=O)NC(CCC(=O)O)C(=O)O)cc3)ccc2c1 (configuration not stated) | 0.9
